We go through five compounds from paper PMC9866482, “Determination of Chemical Composition and Investigation of Biological Activities of Ocimum basilicum L” (Molecules, 2023).

What is called MIC is the smallest concentration in the dilution series that meets the test's criterion for growth inhibition.

Marks after values point to notes of the source that are not given here.

One assay in a line: ABTS antioxidant assay. Conditions: mean of triplicates ± SD.
A short description of assay [1]: Ferric reducing antioxidant power (FRAP) assay. Conditions: mean of triplicates ± SD.
The subject of assay [2] is Salmonella enterica Typhimurium ATCC 700408. The assay can be described thus: Disc diffusion assay. The assay is classed as cell-based. To be noted: disc with 10 µL EO or aqueous extract, chloramphenicol 30 µg, read-out: Diameters of the inhibition zones. Here is the method:
(§1) The bacterial strains were revived by inoculation in Mueller–Hinton Agar (MHA) followed by incubation at 37 °C for 24 h. A bacterial suspension (0.5 McFarland) was prepared in sterile physiologic water (0.9% NaCl) from the obtained culture. The yeast strain was inoculated in Sabouraud’s agar (SA) and incubated at 25 °C for 48 h, then a yeast suspension (0.5 McFarland) was prepared in sterile physiological water. The Fungi strains were sub-cultured in SA and incubated at 25 °C for 5 days. Afterward, the culture was washed with 2 mL of sterile physiological water. The suspension was transferred to a sterile assay tube, where the heavy particles were allowed to settle for 5 min. The upper homogeneous suspensions were transferred to a new sterile tube and adjusted microscopically to about 10^4 CFU/mL.
(§2) Briefly, the culture suspension was inoculated by swab on optimal culture media (MHA for bacteria and SA for yeasts and fungi). Afterward, six mm diameter sterile paper discs soaked in 10 µL of EO (mixed with 5% dimethyl sulfoxide (DMSO)) or aqueous extract were deposited on each plate. Chloramphenicol (30 µg) was used as a positive control for bacteria, and nystatin (100 I.U.) was used as a positive control for yeasts and fungi, while DMSO (10 µL; 5%) as a negative control. Incubation was then conducted at 37 °C for 24 h, 25 °C for 48 h, and 25 °C for 72 h for bacteria, yeasts, and fungi, respectively. After incubation, the diameters of the inhibition zones were measured in millimeters, and the results were expressed as the mean ± standard deviation (SD) of three replicates.
On the technique in general: In agar diffusion tests the substance spreads into inoculated agar from a disc or well.

For assay [3], the system named is Escherichia coli ATCC 25922. The assay can be described thus: Disc diffusion assay. The assay is classed as cell-based. To be noted: ATCC25922, disc with 10 µL EO or aqueous extract, chloramphenicol 30 µg, read-out: Diameters of the inhibition zones. The procedure:
as §1, §2

Assay [4] deals with Bacillus subtilis ATCC 6633. The experiment in a line: Disc diffusion assay. Format: cell-based. Conditions: disc with 10 µL EO or aqueous extract, chloramphenicol 30 µg. Here is the method: as §1, §2
The test system of assay [5] is Proteus mirabilis ATCC 25933. The assay can be described thus: Disc diffusion assay. Format: cell-based. To be noted: ATCC25933, disc with 10 µL EO or aqueous extract, chloramphenicol 30 µg, read-out: Diameters of the inhibition zones. The procedure:
as §1, §2

Assay [6] has as its system Listeria monocytogenes ATCC 13932. The assay can be described thus: Disc diffusion assay. The assay is classed as cell-based. To be noted: ATCC13932, disc with 10 µL EO or aqueous extract, chloramphenicol 30 µg, read-out: Diameters of the inhibition zones. Here is the method:
as §1, §2

For assay [7], the system named is Staphylococcus aureus ATCC 29213. The assay can be described thus: Disc diffusion assay. The assay is classed as cell-based. To be noted: ATCC29213, disc with 10 µL EO or aqueous extract, chloramphenicol 30 µg, read-out: Diameters of the inhibition zones. The procedure:
as §1, §2

Assay [8] concerns Salmonella enterica Typhimurium ATCC 700408. The assay can be described thus: MIC and MBC by microdilution. The assay is classed as cell-based. Conditions: head does not say MIC or MBC, read-out: Controls (MIC of positive control). The procedure: (§3) The bacterial strains were revived by inoculation in Mueller–Hinton Agar (MHA) followed by incubation at 37 °C for 24 h. A bacterial suspension (0.5 McFarland) was prepared in sterile physiologic water (0.9% NaCl) from the obtained culture. The yeast strain was inoculated in Sabouraud’s agar (SA) and incubated at 25 °C for 48 h, then a yeast suspension (0.5 McFarland) was prepared in sterile physiological water. The Fungi strains were sub-cultured in SA and incubated at 25 °C for 5 days. Afterward, the culture was washed with 2 mL of sterile physiological water. The suspension was transferred to a sterile assay tube, where the heavy particles were allowed to settle for 5 min. The upper homogeneous suspensions were transferred to a new sterile tube and adjusted microscopically to about 10^4 CFU/mL. […] The minimum inhibitory concentration (MIC) is defined as the lowest concentration of EO or extract that can inhibit the growth of microorganisms. […] Mueller–Hinton broth (MHB) (Biokar, Beauvais, France) was used for bacteria, whereas Sabouraud broth (Biokar, Beauvais, France) was employed for yeast. The incubation was carried out at 37 °C for 24 h for the bacteria and at 25 °C for 48 h for the yeasts. However, MIC determination for fungi was carried out by the gradient plate method according to the protocol previously described. Chloramphenicol was used as a positive control for bacteria, while nystatin was used for yeasts and fungi. Minimum bactericidal concentration (MBC) corresponds to the lowest EO or extract concentration that can kill the microorganism. The same microdilution experiment used in determining the MIC was used.
For orientation: Dilution methods test growth across graded concentrations, often in twofold steps.

Assay [9] relates to Escherichia coli ATCC 25922. The assay can be described thus: MIC and MBC by microdilution. The assay is classed as cell-based. To be noted: ATCC25922, head does not say MIC or MBC, method names the control for MIC, read-out: Controls (MIC of positive control). Here is the method:
as §3

Assay [10] deals with Bacillus subtilis ATCC 6633. The experiment in a line: MIC and MBC by microdilution. The assay is classed as cell-based. Conditions: ATCC6633, head does not say MIC or MBC, read-out: Controls (MIC of positive control). Here is the method: as §3
Assay [11] has as its system Proteus mirabilis ATCC 25933. The assay can be described thus: MIC and MBC by microdilution. The assay is classed as cell-based. To be noted: ATCC25933, head does not say MIC or MBC, read-out: Controls (MIC of positive control). The procedure: as §3
Assay [12] has as its system Listeria monocytogenes ATCC 13932. The assay can be described thus: MIC and MBC by microdilution. Format: cell-based. To be noted: ATCC13932, head does not say MIC or MBC, read-out: Controls (MIC of positive control). Here is the method:
as §3

Assay [13] has as its system Staphylococcus aureus ATCC 29213. The experiment in a line: MIC and MBC by microdilution. The assay is classed as cell-based. Conditions: ATCC29213, head does not say MIC or MBC, read-out: Controls (MIC of positive control). The procedure: as §3
Details of assay [14]: method as in PMID 35926753. Conditions: LPS-treated rats, oral dose 500 mg/60 kg b.w. ref 109; cited from earlier work.
In another assay the target is tyrosinase (Agaricus bisporus, UniProt C7FF04). To be noted: basil EOs from different cultivars, arbutin as positive control ref 111; cited from earlier work.
Assay [15] has as its system Aspergillus niger. The assay can be described thus: Disc diffusion assay. The assay is classed as cell-based. To be noted: disc with 10 µL EO or aqueous extract, nystatin 100 I.U. Here is the method: as §1, §2
Assay [16] has as its system Candida albicans. The assay can be described thus: Disc diffusion assay. The assay is classed as cell-based. Conditions: disc with 10 µL EO or aqueous extract, nystatin 100 I.U. Here is the method: as §1, §2
Assay [17] concerns Trichophyton rubrum. The assay can be described thus: Disc diffusion assay. Conditions: disc with 10 µL EO or aqueous extract, nystatin 100 I.U. Format: cell-based. Here is the method:
as §1, §2

The subject of assay [18] is Candida albicans. The assay can be described thus: MIC and MBC by microdilution (yeast). Format: cell-based. To be noted: head does not say MIC or MBC. The procedure:
as §3, with “Chloramphenicol was used as a positive control for bacteria, while nystatin was used for yeasts and fungi. Minimum bactericidal concentration (MBC) corresponds to the lowest EO or extract concentration that can kill the microorganism. The same microdilution experiment used in determining the MIC was used.” left out

Assay [19] relates to Aspergillus niger. The experiment in a line: MIC by gradient plate method, MBC. Format: cell-based. To be noted: head does not say MIC or MBC. Here is the method:
as §3, with “Chloramphenicol was used as a positive control for bacteria, while nystatin was used for yeasts and fungi. Minimum bactericidal concentration (MBC) corresponds to the lowest EO or extract concentration that can kill the microorganism. The same microdilution experiment used in determining the MIC was used.” left out

The test system of assay [20] is Trichophyton rubrum. The experiment in a line: MIC by gradient plate method, MBC. To be noted: head does not say MIC or MBC. Format: cell-based. The procedure: as §3, with “Chloramphenicol was used as a positive control for bacteria, while nystatin was used for yeasts and fungi. Minimum bactericidal concentration (MBC) corresponds to the lowest EO or extract concentration that can kill the microorganism. The same microdilution experiment used in determining the MIC was used.” left out

Chain of tyrosinase (C7FF04 1-392): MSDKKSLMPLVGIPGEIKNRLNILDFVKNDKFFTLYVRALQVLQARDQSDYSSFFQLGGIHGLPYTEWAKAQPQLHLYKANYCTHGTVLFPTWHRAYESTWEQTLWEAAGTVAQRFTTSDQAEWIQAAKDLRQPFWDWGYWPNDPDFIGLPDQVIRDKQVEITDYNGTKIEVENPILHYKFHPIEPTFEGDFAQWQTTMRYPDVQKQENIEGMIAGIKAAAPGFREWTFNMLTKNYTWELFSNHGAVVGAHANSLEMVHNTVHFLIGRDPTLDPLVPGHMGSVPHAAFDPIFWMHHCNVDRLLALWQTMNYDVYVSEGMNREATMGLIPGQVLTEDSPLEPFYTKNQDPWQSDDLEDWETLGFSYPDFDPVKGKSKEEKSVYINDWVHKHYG

Turning to `Cc1c(C)c2c(c(C)c1O)CCC(C)(C(=O)O)O2` (stereo not drawn) [Trolox], in the assay “ABTS antioxidant assay”, the “IC50 ABTS” value was 9.33 ± 0.07 ^c mg TEs/g. In assay [1], the “IC50 FRAP” value is on record as 8.52 ± 0.17 ^c mg TEs/g.

As to `O=C(N[C@H](CO)[C@H](O)c1ccc([N+](=O)[O-])cc1)C(Cl)Cl` [Chloramphenicol], the zone of inhibition at 30 µg/disc came out at 13.5 ± 0.15 mm in assay [2]; 21.9 ± 0.2 mm in [3]; 15.7 mm in assay [4] (Bacillus subtilis, ATCC6633, Bacillus subtilis ATCC 6633, read-out: Diameters of the inhibition zones); 22.2 ± 0.15 mm in [5]; 27.9 ± 0.15 mm in assay [6]; 25 ± 0.25 mm in [7]. Besides, the “Diameters of the inhibition zones” value in assay [4] (Bacillus subtilis ATCC 6633) is 15.5 ± 0.15 mm. Moreover, the MIC worked out at 64 µg/mL in assay [8]; 4 µg/mL in [9]; 32 µg/mL in assay [10]; 4 µg/mL in [11]; 2 µg/mL in assay [12]; 4 µg/mL in assay [13].

As to `O=C(O)c1ccccc1` [benzoic acid], in assay [14], the “Level of IL-1β” value is 2.32 ± 0.28 × 10^3 pg/mL and the “Level of tumor necrosis factor-α (TNF-α)” value is 5.70 ± 1.04 × 10^3 pg/mL.

For the compound `OC[C@H]1O[C@@H](Oc2ccc(O)cc2)[C@H](O)[C@@H](O)[C@@H]1O` [arbutin], the Tyrosinase inhibitory activity on tyrosinase is recorded as 81.5 ± 2.6%.

For the compound `C[C@@H]1[C@H](O)[C@@H](C)/C=C/C=C/CC/C=C/C=C/C=C/C=C/C(O[C@H]2O[C@H](C)[C@@H](O)[C@H](N)[C@@H]2O)CC2O[C@](O)(CC(O)C(O)CCC(O)CC(O)CC(O)CC(=O)O[C@H]1C)CC(O)C2C(=O)O` (stereo partly drawn) [Nystatin], the “Diameters of the inhibition zones” value in the assay with Aspergillus niger [15] turned out to be 26.4 ± 0.10 mm; in the assay with Candida albicans [16], 29.7 ± 0.20 mm; in the assay with Trichophyton rubrum [17] it was 24.9 ± 0.26 mm. For the same compound, the “Controls (MIC of positive control)” value with Candida albicans [18] is listed as 4 µg/mL; in the assay with Aspergillus niger [19], 16 µg/mL; with Trichophyton rubrum [20] it was 16 µg/mL.
